This is an account of results in patent publication US11591331B2, “PARP1 inhibitors and uses thereof” (Xinthera, Inc., priority 2021, dated 2023).

A value given as a limit tells only on which side of the number the result lay.

Common to all, as to test: Cell growth inhibition assay (CellTiter-Glo cell viability, 7 days)
Type in all cases: cell-based
Background: ATP-based viability assays read luminescence as a measure of living cells.

The subject of one test is DLD-1 BRCA2(−/−). The note with it: Homo sapiens, 168 h, DLD-1 BRCA2(-/-) cells.
The next test concerns DLD-1 parental. The note with it: Homo sapiens, 168 h, DLD-1 parental cells. An excerpt: Example A: Cell Growth Inhibition Assay
The objective of this study is to evaluate the effect of invention compounds on cell proliferation through the cell viability assay in DLD-1 BRCA2(−/−) and parental isogenic pair and MDA-MB-436 (mutated BRCA1) cell lines. The CellTiter-Glo (CTG) based cell viability assay is designed to determine the number of viable cells in the culture because of compound effect, by quantifying ATP, which indicates the presence of metabolically active cells.
DLD-1 BRCA2(−/−) and parental isogenic pair were cultured in RPMI 1640 supplemented with 10% fetal bovine serum (FBS), and MDA-MB-436 cells were cultured in DMEM supplemented with 10% FBS. Both are culture at 37° C. with 5% CO2. Invention compounds were distributed to the 384 well plate (Corning, 3764) using Echo acoustic liquid handler to form a 1:3 serially diluted final concentration with top dose of 10 or 30 μM. The cells were seeded into the plate in the density of 50 cells/well (DLD-1 parental), 200 cells/well (DLD-1 BRCA2−/−), or 500 cells/well (MDA-MB-436). After a short spun, the cells were cultured in a well moisturized incubator at 37° C. with 5% CO2 for 7 days without disturbance. The cell viability was measured by CellTiter Glo 2.0 assay kit (Promega, G9243), and growth inhibition rate was calculated and plotted against final compound concentration, and the data were fitted in Xfit to generate IC50.

Test [1] concerns MDA-MB-436 (mutated BRCA1) cell lines. The note with it: Homo sapiens, 168 h, MDA-MB-436 cells.

With `CCc1cc2ncc(CN3CCN(c4ccc(-n5cnnc5)cc4)CC3)cc2[nH]c1=O` [Example 32], the EC50 with DLD-1 BRCA2(−/−) was 0.077 µM; with DLD-1 parental it was above 30 µM; in test [1] it was 0.015 µM.

Consider `CCc1cc2ncc(CN3CCN(c4ccc(C(=O)NC5CC5)nc4)CC3)cc2[nH]c1=O` [Example 12, N-cyclopropyl-5-{4-[(7-ethyl-6-oxo-5H-1,5-naphthyridin-3-yl)methyl]piperazin-1-yl}pyridine-2-carboxamide], for which the EC50 in the test with DLD-1 BRCA2(−/−) is 0.0011 µM; with DLD-1 parental, 51 µM; in test [1], 0.00062 µM.

For `CNC(=O)c1ccc(N2CCN(Cc3cnc4c(c3)[nH]c(=O)c3ccoc34)CC2)cn1` [Example 72], the EC50 in the test with DLD-1 BRCA2(−/−) is 0.0042 µM; with DLD-1 parental, above 30 µM; in test [1], 0.0025 µM.

With `CCc1cc2ccc(CN3CCN(c4ccc(C#N)cn4)CC3)cc2[nH]c1=O` [Example 9, 6-{4-[(3-ethyl-2-oxo-1H-quinolin-7-yl)methyl]piperazin-1-yl}pyridine-3-carbonitrile], the EC50 in the test on DLD-1 BRCA2(−/−) was found to be 0.0035 µM; with DLD-1 parental, 13 µM; in test [1], 0.0015 µM.

For the compound `CNC(=O)c1ccc(N2CCN(Cc3ccc4c5c(c(=O)[nH]c4c3)CCC5)CC2)cn1` [Example 10, N-methyl-5-[4-({4-oxo-1H,2H,3H,5H-cyclopenta[c]quinolin-7-yl}methyl)piperazin-1-yl]pyridine-2-carboxamide], the EC50 was found to be 0.0026 µM with DLD-1 BRCA2(−/−), 1400 µM with DLD-1 parental and 0.00068 µM in test [1].

Turning to `CCc1cc2ncc(CN3CCN(c4ccc(C(=O)NC)nc4)C[C@H]3C)cc2[nH]c1=O` (racemic) [Example 161], the EC50 with DLD-1 BRCA2(−/−) is 0.022 µM; in the test on DLD-1 parental it was above 10 µM.

In the case of `CNC(=O)c1ccc(N2CCN(Cc3cnc4cc(C5CC5)c(=O)[nH]c4c3)C[C@H]2C)cn1` [Example 74], the EC50 with DLD-1 BRCA2(−/−) worked out at 0.0078 µM; in test [1] it was 0.0039 µM.

For `CNC(=O)c1ccc(C2=CCN(Cc3cnc4cc(Cl)c(=O)[nH]c4c3)CC2)cn1` [Example 160], the EC50 was 0.0026 µM with DLD-1 BRCA2(−/−) and 0.0021 µM in test [1].

Turning to `CCNC(=O)c1ccc(N2CCN(Cc3cnc4cc(C5CC5)c(=O)[nH]c4c3)CC2)cn1` [Example 137], the EC50 in the test with DLD-1 BRCA2(−/−) turned out to be 0.0021 µM; in test [1], 0.0013 µM.

As for `CCc1cc2ncc(CN3CCN(c4ccc(C(=O)NC)nc4C#N)[C@H]4C[C@H]43)cc2[nH]c1=O` (single isomer, unassigned) [Example 76], the values for the EC50 (in the test with DLD-1 BRCA2(−/−); in test [1]) were 0.0016 µM and 0.00098 µM, respectively.

Consider `CCc1cc2ncc(CN3CCN4c5ccc(C(=O)NC)nc5OC[C@@H]4C3)cc2[nH]c1=O` [Example 22B, (10S)-12-[(7-ethyl-6-oxo-5H-1,5-naphthyridin-3-yl)methyl]-N-methyl-8-oxa-1,6,12-triazatricyclo[8.4.0.0^{2,7}]tetradeca-2,4,6-triene-5-carboxamide], for which the EC50 in the test on DLD-1 BRCA2(−/−) was 0.49 µM; in test [1], 0.16 µM.

For the compound `CCc1cc2ncc(CN3CCN(c4ccncn4)CC3)cc2[nH]c1=O` [Example 106], the EC50 in the test on DLD-1 BRCA2(−/−) was 0.0057 µM; in test [1], 0.0066 µM.

For the compound `Cc1cnc(N2CCN(Cc3cnc4cc(C5CC5)c(=O)[nH]c4c3)CC2)n1C` [Example 136], the EC50 is 0.002 µM with DLD-1 BRCA2(−/−) and 0.00093 µM in test [1].

`CNC(=O)c1ccc(N2CCN(Cc3cnc4c5c(c(=O)[nH]c4c3)CCC5)CC2)cn1` [Example 84]: the EC50 with DLD-1 BRCA2(−/−) worked out at 0.0022 µM; in test [1], 0.002 µM.

Regarding `CNC(=O)c1ccc(N2CCN(Cc3cnc4cc(C5CC5)c(=O)[nH]c4c3)[C@H]3C[C@H]32)cn1` (single isomer, unassigned) [Example 110], the EC50 was found to be 0.0057 µM in the test with DLD-1 BRCA2(−/−) and 0.0033 µM in test [1].

On to `CNC(=O)c1ccc2c(c1F)OC[C@@H]1CN(Cc3cnc4cc(C)c(=O)[nH]c4c3)CCN21` [Example 94], for which the EC50 was determined as 0.039 µM in the test with DLD-1 BRCA2(−/−) and 0.041 µM in test [1].

For `CCc1cc2ncc(CN3CCN(c4ccc(C(=O)NC)nn4)CC3)cc2[nH]c1=O` [Example 61], the EC50 is 0.0063 µM with DLD-1 BRCA2(−/−) and 0.0048 µM in test [1].

Take `CCc1cc2ncc(CN3CCN(c4ccc(C(=O)N[C@@H]5CCCOC5)nc4)CC3)cc2[nH]c1=O` (single isomer, unassigned) [Example 54]: the EC50 with DLD-1 BRCA2(−/−) turned out to be 0.0028 µM; in test [1] it was 0.001 µM.

Consider `CNC(=O)c1ccc(N2CCN(Cc3ccc4c5c(c(=O)[nH]c4c3)CCO5)CC2)cn1` [Example 18, N-methyl-5-[4-({4-oxo-2H,3H,5H-furo[3,2-c]quinolin-7-yl}methyl)piperazin-1-yl]pyridine-2-carboxamide], for which the EC50 in the test with DLD-1 BRCA2(−/−) is 0.0051 µM; in test [1], 0.0023 µM.

As to `CNC(=O)c1ncc(N2CCN(Cc3cnc4cc(C5CC5)c(=O)[nH]c4c3)[C@H]3C[C@H]32)cc1F` (single isomer, unassigned) [Example 113], the concentration for a half-maximal effect (EC50) in the test with DLD-1 BRCA2(−/−) was 0.045 µM; in test [1], 0.02 µM.

Consider `CCc1cc2ncc(CN3CCN(c4ccc(C(=O)N[C@H]5C[C@@H](C#N)C5)nc4)CC3)cc2[nH]c1=O` [Example 58], for which the EC50 in the test with DLD-1 BRCA2(−/−) is 0.0035 µM; in test [1] it was 0.0009 µM.

As for `CCc1cc2nnc(CN3CCN(c4ccc(C(=O)NC)nc4)CC3)cc2[nH]c1=O` [Example 86], the EC50 was 0.006 µM with DLD-1 BRCA2(−/−) and 0.0061 µM in test [1].

Take `[2H]C([2H])([2H])C([2H])([2H])NC(=O)c1ccc(N2CCN(Cc3cnc4cc(C5CC5)c(=O)[nH]c4c3)CC2)cn1` [Example 119]: the values for the EC50 (in the test with DLD-1 BRCA2(−/−); in test [1]) were 0.0018 µM and 0.00099 µM, respectively.

As to `CNC(=O)c1ccc(N2CCN(Cc3cnc4cc([C@@H]5CC5(F)F)c(=O)[nH]c4c3)CC2)cn1` (single isomer, unassigned) [Example 143], the EC50 in the test on DLD-1 BRCA2(−/−) turned out to be 0.013 µM; in test [1], 0.012 µM.

As to `CNC(=O)c1ccc(N2CCN(Cc3cnc4cc(C)c(=O)[nH]c4c3)[C@H]3C[C@H]32)cn1` (single isomer, unassigned) [Example 99], the EC50 with DLD-1 BRCA2(−/−) was determined as 0.016 µM; in test [1], 0.011 µM.

Turning to `Cc1cc2ncc([C@@H](C)N3CCN(c4ccc(C(=O)NC5CC5)nc4)CC3)cc2[nH]c1=O` (single isomer, unassigned) [Example 127], the concentration for a half-maximal effect (EC50) in the test with DLD-1 BRCA2(−/−) amounted to 0.015 µM; in test [1], 0.0073 µM.

`CCc1cc2ncc(CN3CCN(c4ccnnc4C#N)CC3)cc2[nH]c1=O` [Example 120]: the figures for the EC50 (in the test on DLD-1 BRCA2(−/−); in test [1]) were 0.0027 µM and 0.0017 µM, respectively.

For the compound `CCc1cc2ncc(CN3CCN(c4ccncc4C#N)CC3)cc2[nH]c1=O` [Example 118], the EC50 with DLD-1 BRCA2(−/−) amounted to 0.0013 µM; in test [1] it was 0.00074 µM.

Turning to `CNC(=O)c1ccc(N2CCN(Cc3cnc4cc(N5CCC5)c(=O)[nH]c4c3)CC2)cn1` [Example 149], the EC50 in the test on DLD-1 BRCA2(−/−) turned out to be 0.017 µM; in test [1] it was 0.0094 µM.

Take `CNC(=O)c1ccc2c(n1)OC[C@@H]1CN(Cc3cnc4cc(C)c(=O)[nH]c4c3)CCN21` [Example 77]: the EC50 in the test on DLD-1 BRCA2(−/−) came to 0.0085 µM; in test [1], 0.0058 µM.

Consider `CNC(=O)c1ccc(N2CCN([C@H](C)c3cnc4cc(C)c(=O)[nH]c4c3)CC2)cn1` (single isomer, unassigned) [Example 125], for which the EC50 came out at 0.0085 µM with DLD-1 BRCA2(−/−) and 0.013 µM in test [1].

`CNC(=O)c1ncc(N2CCN(Cc3ccc4c5c(c(=O)[nH]c4c3)CCO5)CC2)cc1F` [Example 71]: the EC50 in the test with DLD-1 BRCA2(−/−) was found to be 0.013 µM; in test [1] it was 0.0059 µM.

A word on the EC50: it is the concentration giving half of the maximal effect.
